These results are taken from ChEMBL document CHEMBL2176960, “Mechanism-based inactivation (MBI) of cytochrome P450 enzymes: structure-activity relationships and discovery strategies to mitigate drug-drug interaction risks” (J Med Chem, 2012).

pIC50, pKi: −log10 of the molar value.

The target of data set [1] is T1, Cytochrome P450 2C8 (Homo sapiens, UniProt P10632).
T1 sequence (P10632 whole entry): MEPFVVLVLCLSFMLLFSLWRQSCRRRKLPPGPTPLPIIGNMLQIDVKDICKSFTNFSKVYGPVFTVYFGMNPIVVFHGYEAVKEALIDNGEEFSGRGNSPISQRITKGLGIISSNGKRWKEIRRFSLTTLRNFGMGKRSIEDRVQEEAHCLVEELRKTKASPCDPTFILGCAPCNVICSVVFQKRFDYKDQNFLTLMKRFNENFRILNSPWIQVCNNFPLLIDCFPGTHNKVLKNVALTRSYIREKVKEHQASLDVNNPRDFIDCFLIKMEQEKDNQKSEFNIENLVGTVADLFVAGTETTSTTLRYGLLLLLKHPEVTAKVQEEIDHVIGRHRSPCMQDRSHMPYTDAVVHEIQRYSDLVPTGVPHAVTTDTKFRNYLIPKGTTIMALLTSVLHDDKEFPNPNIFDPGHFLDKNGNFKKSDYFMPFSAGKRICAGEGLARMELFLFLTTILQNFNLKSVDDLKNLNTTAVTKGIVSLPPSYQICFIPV
The experiment in a line: Inhibition of CYP2C8. Type of data set: ADME.

For data set [2], the target named is T1, Cytochrome P450 2C8. Description: Inhibition of CYP2C8 in human liver microsomes in presence of NADPH. Type of data set: ADME, Microsome. In general terms: Liver microsomes are a subcellular fraction often used to study metabolism.
Data set [3] deals with T1, Cytochrome P450 2C8. Description: (§1) Time dependent inhibition of CYP2C8 in human liver microsomes. Type of data set: ADME, Microsome.
Data set [4] addresses T2, CYP2C8 (Homo sapiens, UniProt P10632).
T2 sequence (P10632 whole entry): T1 sequence (P10632 whole entry)
The data set is described as §1. Type of data set: ADME, Microsome. The settings on record: human, liver microsomes.

The target of data set [5] is T3, CYP3A4 (Homo sapiens, UniProt P08684). The experiment in a line: (§2) Inhibition of CYP3A4 in human liver microsomes in presence of NADPH. Type of data set: ADME, Microsome. Particulars: human, liver microsomes.
Data set [6] deals with T4, Cytochrome P450 3A4 (Homo sapiens, UniProt P08684). Described as §2. Format: ADME, Microsome.
Data set [7] addresses T3, CYP3A4. Description: (§3) Time dependent inhibition of CYP3A4. Format: ADME.
Data set [8] addresses T4, Cytochrome P450 3A4. The description is as §3. Format: ADME.
Data set [9] in a line: Half life in human. The settings on record: in vivo. Format: ADME, organism-based.
Data set [10] is described as follows: Oral bioavailability in human. Type of data set: ADME, organism-based. The settings on record: in vivo.
Data set [11] is described as follows: Lipophilicity, log D of the compound. The settings on record: octanol/water. Format: physicochemical.
Data set [12] deals with T3, CYP3A4. Description: Inhibition of CYP3A4-mediated testosterone 6 beta hydroxylation in human liver microsome by Dixon plot analysis. Type of data set: ADME. The settings on record: liver microsomes, probe testosterone (6 beta-hydroxylation).
In data set [13] the target is T4, Cytochrome P450 3A4. The experiment in a line: Time dependent inhibition of CYP3A4-mediated testosterone-6-beta hydroxylation in human liver microsome. Type of data set: ADME.
The species named for data set [14] is Homo sapiens. The experiment in a line: Inhibition of CYP2B6 in human assessed as decrease of hydroxybupropion metabolite systemic exposure. The settings on record: in vivo. More on the design: scale not given: the % may be the effect or the level left. Type of data set: ADME, organism-based.
For data set [15], the species on record is Homo sapiens. Description: Inhibition of CYP2B6 in human assessed as increase of bupropion systemic exposure. Format: ADME, organism-based. More on the design: scale not given: the % may be the effect or the level left. Particulars: in vivo.
A short description of data set [16]: Clearance in human. Type of data set: ADME, organism-based. The settings on record: in vivo.
The target in data set [17] is T3, CYP3A4. Description: (§4) Time dependent inhibition of CYP3A4 in human liver microsomes. Type of data set: ADME, Microsome. Particulars: human, liver microsomes.
Data set [18] concerns the target T4, Cytochrome P450 3A4. The data set is described as §4. Type of data set: ADME, Microsome.
Data set [19] has as its target Cytochrome P450 2C9 (Homo sapiens, UniProt P11712). Description: Reversible inhibition of CYP2C9 in human liver microsomes. Format: ADME, Microsome.
The target in data set [20] is T1, Cytochrome P450 2C8. The experiment in a line: Reversible inhibition of CYP2C8 in human liver microsomes. Type of data set: ADME, Microsome.
Data set [21] concerns the target CYP2C19 (Homo sapiens, UniProt P33261). Description: (§5) Time dependent inhibition of CYP2C19.
For data set [22], the target named is Cytochrome P450 2C19 (Homo sapiens, UniProt P33261). The data set is described as §5.
Chain of Cytochrome P450 2C19 (P33261 whole entry): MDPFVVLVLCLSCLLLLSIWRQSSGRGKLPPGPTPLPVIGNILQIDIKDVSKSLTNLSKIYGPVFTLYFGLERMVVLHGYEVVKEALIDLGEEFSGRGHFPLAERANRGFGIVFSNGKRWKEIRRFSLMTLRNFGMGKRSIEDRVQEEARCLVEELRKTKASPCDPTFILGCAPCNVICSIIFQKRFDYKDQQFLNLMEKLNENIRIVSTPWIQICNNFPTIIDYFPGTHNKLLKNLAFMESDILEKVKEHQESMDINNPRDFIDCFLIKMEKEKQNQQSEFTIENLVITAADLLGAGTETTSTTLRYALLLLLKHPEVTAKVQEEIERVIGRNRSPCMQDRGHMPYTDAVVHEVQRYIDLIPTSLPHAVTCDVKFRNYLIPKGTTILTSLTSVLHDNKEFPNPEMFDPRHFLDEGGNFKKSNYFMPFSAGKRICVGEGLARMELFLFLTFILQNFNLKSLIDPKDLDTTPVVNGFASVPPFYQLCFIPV

T3 sequence (P08684 whole entry): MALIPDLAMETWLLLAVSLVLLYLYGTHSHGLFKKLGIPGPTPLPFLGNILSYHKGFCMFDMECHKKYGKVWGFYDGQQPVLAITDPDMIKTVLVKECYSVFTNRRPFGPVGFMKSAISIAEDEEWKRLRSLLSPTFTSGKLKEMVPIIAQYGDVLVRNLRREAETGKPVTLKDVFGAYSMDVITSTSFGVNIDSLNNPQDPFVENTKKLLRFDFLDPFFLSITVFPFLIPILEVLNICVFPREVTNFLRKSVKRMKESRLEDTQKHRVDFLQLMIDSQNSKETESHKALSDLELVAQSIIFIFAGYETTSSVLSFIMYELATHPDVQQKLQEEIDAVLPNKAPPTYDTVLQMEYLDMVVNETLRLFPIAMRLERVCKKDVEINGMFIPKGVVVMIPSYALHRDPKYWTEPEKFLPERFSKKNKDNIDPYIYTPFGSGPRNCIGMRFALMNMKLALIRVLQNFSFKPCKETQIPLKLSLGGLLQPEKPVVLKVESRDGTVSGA
T4 sequence (P08684 whole entry): as above
Chain of CYP2C19 (P33261 whole entry): as the sequence (P33261 whole entry) above
Chain of Cytochrome P450 2C9 (P11712 whole entry): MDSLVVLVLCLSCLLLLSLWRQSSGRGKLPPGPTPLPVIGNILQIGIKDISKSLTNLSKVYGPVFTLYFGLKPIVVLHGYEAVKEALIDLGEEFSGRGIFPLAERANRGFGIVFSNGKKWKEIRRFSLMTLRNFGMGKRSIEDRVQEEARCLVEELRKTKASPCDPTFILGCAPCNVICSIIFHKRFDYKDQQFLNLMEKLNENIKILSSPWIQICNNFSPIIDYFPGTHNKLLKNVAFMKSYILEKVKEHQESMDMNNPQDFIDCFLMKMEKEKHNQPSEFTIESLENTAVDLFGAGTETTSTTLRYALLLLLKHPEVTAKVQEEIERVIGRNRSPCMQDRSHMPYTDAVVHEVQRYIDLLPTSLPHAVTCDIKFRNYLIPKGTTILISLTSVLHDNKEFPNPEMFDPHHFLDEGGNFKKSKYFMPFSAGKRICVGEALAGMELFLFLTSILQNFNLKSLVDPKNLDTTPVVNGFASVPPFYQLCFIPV

The term pIC50 denotes the IC50 on a negative log10 scale, so that one unit is a factor of ten. The term pKi denotes the negative decadic logarithm of the Ki, by convention in mol/L. Broadly, the kinact is the rate constant of inactivation at saturating inhibitor. With `Cc1ccc(C)c(OCCCC(C)(C)C(=O)O[C@@H]2O[C@H](C(=O)O)[C@@H](O)[C@H](O)[C@H]2O)c1`, the negative logarithm of the IC50 (pIC50) is 5.39 in [1] and 5.74 in [2]. Besides, the negative-log Ki (pKi) in [3] was 4.70. For the same compound, in [4], the kinact is 0.0035 s⁻¹.

Take `COc1cc(CC(=O)O)ccc1Oc1ccc2[nH]c(C)cc2c1NS(=O)(=O)c1ccc(Cl)cc1Cl`: in data set [5], the maximal inactivation rate constant (kinact) was 0.00267 s⁻¹. Moreover, in [6], the negative logarithm of the Ki (pKi) was 4.74.

`CC(C)(C)NC(=O)C1(C2CCCCC2)CCN(C(=O)[C@@H](Cc2ccc(Cl)cc2)NC(=O)[C@H]2CCc3ccccc3[C@H]2N)CC1`: the maximal inactivation rate constant (kinact) in data set [7] is 0.00133 s⁻¹. The same compound showed a pKi in [8] of 4.64.

For orientation: half-life means how long it takes for the measured level to halve. As usually defined, the bioavailability is dose-corrected exposure relative to a reference, in per cent. For orientation: logD means the decadic logarithm of the distribution of all forms, ionised or not, between an organic phase and buffer at a given pH. In data set [9], `CCc1nn(CCCN2CCN(c3cccc(Cl)c3)CC2)c(=O)n1CCOc1ccccc1` [NEFAZODONE] gave a half-life of 1 h. This compound also returned a bioavailability in data set [10] of 20%. The compound further showed a pH-dependent lipophilicity (logD) in data set [11] of 3.43.

Turning to `CC(C)CN(C[C@@H](O)[C@H](Cc1ccccc1)NC(=O)O[C@H]1CCOC1)S(=O)(=O)c1ccc(N)cc1`, the maximal inactivation rate constant (kinact) in [12] was 0.00983 s⁻¹. The same compound showed a negative logarithm of the Ki (pKi) in data set [13] of 6.43.

For the compound `CC(=O)Oc1cc2c(s1)CCN(C(C(=O)C1CC1)c1ccccc1F)C2` (stereo not given), the Activity in [14] came to 23%; in data set [15], 18%.

Usually clearance stands for the volume of plasma or blood freed of the substance per unit of time. On to `O=C1CCc2ccc(OCCCCN3CCN(c4cccc(Cl)c4Cl)CC3)cc2N1` [ARIPIPRAZOLE], for which, in data set [10], the bioavailability amounted to 87%. Further, the clearance in data set [16] amounted to 0.8 mL/min/kg. Besides, the logD in data set [11] is 5.54.

As for `Clc1ccccc1CN1CCc2sccc2C1` [TICLOPIDINE], the Activity in data set [14] is on record as 84%; in data set [15], 85%.

In data set [11], `O=c1n(CCCN2CCN(c3cccc(Cl)c3)CC2)nc2ccccn12` [TRAZODONE] showed a pH-dependent lipophilicity (logD) of 1.58.

As to `CN(c1ncccc1CNc1nc(Nc2ccc3c(c2)CC(=O)N3)ncc1C(F)(F)F)S(C)(=O)=O` [PF-00562271], the kinact in data set [17] was 0.00383 s⁻¹. Moreover, the pKi in data set [18] was 4.92.

Take `Cc1ccc(C)c(OCCCC(C)(C)C(=O)O)c1` [GEMFIBROZIL]: the figures for the pIC50 in data set [19], in [1] and in [20] were 5.02, 4.55 and 4.02, respectively.

Turning to `COC(=O)[C@H](c1ccccc1Cl)N1CCc2sccc2C1` [CLOPIDOGREL], the Activity is 52% in data set [14] and 60% in data set [15]. The kinact in [21] was 0.000917 s⁻¹. The same compound showed a negative-log Ki (pKi) in data set [22] of 4.84.
